According to ChEMBL document CHEMBL5120892, “Identification and Characterization of Natural and Semisynthetic Quinones as Aurora Kinase Inhibitors” (J Nat Prod, 2022):
Calls of active or inactive are those of the source. No cut-off for these calls is given here.

Columns and labels:
[1] = system: K562; assay: Antiproliferative activity against human K562 cells measured after 72 hrs by SRB assay; type: functional
[2] = system: HCT-116; assay: Antiproliferative activity against human HCT-116 cells measured after 72 hrs by SRB assay; type: functional
[3] = system: BT-549; assay: Antiproliferative activity against human BT-549 cells measured after 72 hrs by SRB assay; type: functional
[4] = system: MOLM-13; assay: Antiproliferative activity against human MOLM-13 cells measured after 72 hrs by SRB assay; type: functional
[5] = system: HCC1954; assay: Antiproliferative activity against human HCC1954 cells measured after 72 hrs by SRB assay; type: functional
[6] = system: MCF7; assay: Antiproliferative activity against human MCF7 cells measured after 72 hrs by SRB assay; type: functional
[7] = system: CAL-51; assay: Antiproliferative activity against human CAL-51 cells measured after 72 hrs by SRB assay; type: functional
[8] = system: MV4-11; assay: Antiproliferative activity against human MV4-11 cells measured after 72 hrs by SRB assay; type: functional
[9] = system: HCT-116; assay: Induction of apoptosis in human HCT-116 cells assessed as late apoptotic cells at 2.5 uM measured after 24 hrs by Annexin V-FITC/propidium iodide staining based flow cytometry (reference value: 0.02%); type: functional
[10] = target: T1, Aurora kinase A (Homo sapiens, UniProt O14965); assay: Inhibition of Aurora A (122 to 403 residues) (unknown origin) expressed in Escherichia coli Rosetta 2(DE3) assessed as reduction in TACC3 phosphorylation at Ser 558 residue using TACC3 (519 to 838 residues) as substrate measured after 30 mins by Western blot analysis
T1 sequence (O14965 whole entry): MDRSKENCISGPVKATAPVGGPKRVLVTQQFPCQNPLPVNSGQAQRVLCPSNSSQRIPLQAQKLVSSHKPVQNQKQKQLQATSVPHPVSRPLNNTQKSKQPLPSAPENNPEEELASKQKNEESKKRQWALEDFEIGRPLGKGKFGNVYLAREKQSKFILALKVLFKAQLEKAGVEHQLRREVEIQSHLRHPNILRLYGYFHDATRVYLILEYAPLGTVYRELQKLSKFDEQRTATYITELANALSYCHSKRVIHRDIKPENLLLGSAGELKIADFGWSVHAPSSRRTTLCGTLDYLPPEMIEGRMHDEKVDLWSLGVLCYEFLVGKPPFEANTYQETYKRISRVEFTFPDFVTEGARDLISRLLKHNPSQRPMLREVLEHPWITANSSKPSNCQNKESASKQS

[11] = system: A549; assay: Induction of abnormal mitosis in human A549 cells assessed as formation of misaligned chromosome at 3 to 6 uM measured after 24 hrs by DAPI staining based immunofluorescence assay; type: functional, cell-based; conditions: dose 3-6 µM
[12] = system: HCT-116; assay: Induction of apoptosis in human HCT-116 cells assessed as early apoptotic cells at 2.5 uM measured after 24 hrs by Annexin V-FITC/propidium iodide staining based flow cytometry (reference value: 2.92%); type: functional
[13] = target: T2, Aurora kinase A (Homo sapiens) (UniProt O14965); assay: Binding affinity to Aurora A (unknown origin) expressed in Escherichia coli Rosetta 2(DE3) at 1 mM by STD NMR analysis
T2 sequence (whole entry): T1 sequence (O14965 whole entry)

[14] = system: HCT-116; assay: Induction of apoptosis in human HCT-116 cells assessed as early apoptotic cells at 5 uM measured after 24 hrs by Annexin V-FITC/propidium iodide staining based flow cytometry (reference value: 2.92%); type: functional
[15] = target: T3, Aurora kinase B (Homo sapiens, UniProt Q96GD4); assay: Inhibition of Aurora B in human HCT-116 cells using histone H3 as substrate measured after 2 hrs by Western blot analysis; type: cell-based
T3 sequence (Q96GD4 whole entry): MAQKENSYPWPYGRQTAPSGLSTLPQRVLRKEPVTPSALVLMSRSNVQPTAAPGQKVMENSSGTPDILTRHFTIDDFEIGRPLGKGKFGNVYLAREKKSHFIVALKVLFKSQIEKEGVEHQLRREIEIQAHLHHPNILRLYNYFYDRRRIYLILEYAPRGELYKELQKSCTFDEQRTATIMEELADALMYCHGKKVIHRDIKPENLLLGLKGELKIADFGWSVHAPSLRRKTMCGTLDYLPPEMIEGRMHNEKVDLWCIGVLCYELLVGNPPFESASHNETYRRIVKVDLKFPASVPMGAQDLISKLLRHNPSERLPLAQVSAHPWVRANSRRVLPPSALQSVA

[16] = target: T2, Aurora kinase A (Homo sapiens); assay: Inhibition of Aurora A in human HCT-116 cells using TACC3 as substrate measured after 2 hrs by Western blot analysis; type: cell-based; conditions: dose 1.56-50 µM, DDE = dose-dependent effect
[17] = species on record: Homo sapiens; assay: Selectivity ratio of IC50 for inhibition of Aurora B (unknown origin) to IC50 for inhibition of Aurora A (unknown origin) expressed in Escherichia coli Rosetta 2(DE3)
[18] = target: T3, Aurora kinase B; assay: Inhibition of Aurora B (unknown origin)
[19] = system: HCT-116; assay: Induction of apoptosis in human HCT-116 cells assessed as late apoptotic cells at 5 uM measured after 24 hrs by Annexin V-FITC/propidium iodide staining based flow cytometry (reference value: 0.02%); type: functional
[20] = system: HCT-116; assay: Induction of apoptosis in human HCT-116 cells assessed as increase in cleaved PARP expression at 1.25 to 5 uM measured after 24 hrs by Western blot analysis; type: functional, cell-based; conditions: dose 1.25-5 µM
[21] = system: A549; assay: Induction of abnormal mitosis in human A549 cells assessed as increase in abrogated mitotic cells at 3 to 6 uM measured after 24 hrs by DAPI staining based immunofluorescence assay; type: functional, cell-based; conditions: dose 3-6 µM
[22] = target: T2, Aurora kinase A (Homo sapiens); assay: Inhibition of Aurora A (122 to 403 residues) (unknown origin) expressed in Escherichia coli Rosetta 2(DE3) assessed as reduction in TACC3 phosphorylation at Ser 558 residue at 25 uM using TACC3 (519 to 838 residues) as substrate measured after 30 mins by Western blot analysis
[23] = system: A549; assay: Induction of abnormal mitosis in human A549 cells assessed as formation of aberrant spindle assembly at 3 to 6 uM measured after 24 hrs by DAPI staining based immunofluorescence assay; type: functional, cell-based; conditions: dose 3-6 µM
[24] = system: A549; assay: Induction of abnormal mitosis in human A549 cells assessed as formation of single spindle pole at 3 to 6 uM measured after 24 hrs by CDK5Rap2 staining based immunofluorescence assay; type: functional, cell-based; conditions: dose 3-6 µM
[25] = species on record: Homo sapiens; assay: Selectivity ratio of IC50 for inhibition of Aurora B (unknown origin) to IC50 for inhibition of Aurora A (unknown origin)
[26] = target: T1, Aurora kinase A; assay: Inhibition of Aurora A (unknown origin)

In the case of `CC1=CC(=O)c2cccc(O)c2C1=O`, the GI50 [1] is reported as 1.3 µM, the GI50 [2] is reported as 0.46 µM and the GI50 [3] is reported as 2.7 µM. The GI50 [4] was 4.1 µM, the GI50 [5] was 0.34 µM and the GI50 [6] was 1.4 µM. For the same molecule, the GI50 [7] was 2.5 µM and the GI50 [8] was 26.5 µM.
`O=C1C=CC(=O)c2c(O)ccc(O)c21` [NAPHTHAZALIN] was tested, and the Activity [9] was 3.78%, the IC50 [10] was 0.09 µM and the Activity [11] was “Active”. For the same molecule, the GI50 [1] was 1.7 µM, the GI50 [2] was 0.16 µM and the Activity [12] was 6.85%. The Activity [13] was “Active”, the GI50 [3] was 0.43 µM and the Activity [14] was 6.36%. The inhibition [15] was “Active”, the inhibition [16] was “Dde” and the GI50 [4] was 0.28 µM. It also gave a Ratio IC50 [17] of 3.89, a GI50 [5] of 0.49 µM and an IC50 [18] of 0.35 µM. It also gave a GI50 [6] of 0.43 µM, a GI50 [7] of 0.56 µM and a GI50 [8] of 0.19 µM. For the same molecule, the Activity [19] was 21.56%, the Activity [20] was “Active” and the Activity [21] was “Active”. The inhibition [22] was “Active”, the Activity [23] was “Active” and the Activity [24] was “Active”.
For `O=C1c2ccccc2C(=O)c2c(O)c(CCl)cc(O)c21`, the Activity [9] was 8.31%, the Activity [11] was “Active” and the GI50 [1] was 2.8 µM. For the same molecule, the GI50 [2] was 0.22 µM, the Activity [12] was 11.27% and the Activity [13] was “Active”. It also gave a GI50 [3] of 0.4 µM, an Activity [14] of 17.6% and a GI50 [4] of 3.7 µM. It also gave a GI50 [5] of 0.61 µM, an IC50 [18] of 0.41 µM and a Ratio IC50 [25] of 3.42. For the same molecule, the GI50 [6] was 0.59 µM, the GI50 [7] was 0.15 µM and the GI50 [8] was 6.3 µM. The IC50 [26] was 0.12 µM, the Activity [19] was 53.93% and the Activity [20] was “Active”. For the same molecule, the Activity [21] was “Active”, the Activity [23] was “Active” and the Activity [24] was “Active”.
For `CC1=C(Br)C(=O)c2ccccc2C1=O`, the GI50 [1] was 3.4 µM, the GI50 [2] was 3.4 µM and the GI50 [3] was 4.9 µM. For the same molecule, the GI50 [4] was < 0.01 µM, the GI50 [5] was 1.4 µM and the IC50 [18] was 0.96 µM. It also gave a Ratio IC50 [25] of 10.7, a GI50 [6] of 19.1 µM and a GI50 [7] of 1.5 µM. The GI50 [8] was 3.3 µM, the IC50 [26] was 0.09 µM and the inhibition [22] was “Active”.
In the case of `O=C1C=CC(=O)c2c(O)cccc21` [JUGLONE], the GI50 [1] is reported as > 100 µM, the GI50 [2] is reported as 4.2 µM and the GI50 [3] is reported as > 100 µM. It also gave a GI50 [4] of 21.9 µM, a GI50 [5] of 6.44 µM and an IC50 [18] of 0.62 µM. For the same molecule, the Ratio IC50 [25] was 12.4, the GI50 [6] was 32.6 µM and the GI50 [7] was > 100 µM. The GI50 [8] was 0.06 µM, the IC50 [26] was 0.05 µM and the inhibition [22] was “Active”.
With `CC=CCC1=C(O)C(=O)c2ccccc2C1=O` the GI50 [1] was > 100 µM, the GI50 [2] was 41.5 µM and the GI50 [3] was 47 µM. The GI50 [4] was > 100 µM, the GI50 [5] was > 100 µM and the GI50 [6] was > 100 µM. It also gave a GI50 [7] of 54.1 µM and a GI50 [8] of 79.1 µM.
Molecule `COc1ccc2c(c1)C(=O)C=CC2=O` has a GI50 [1] of 2.9 µM, a GI50 [2] of 8.3 µM and a GI50 [3] of 34 µM. For the same molecule, the GI50 [4] was 4.1 µM, the GI50 [5] was 2.2 µM and the GI50 [6] was 28.9 µM. It also gave a GI50 [7] of 2.8 µM and a GI50 [8] of 4.3 µM.
In the case of `CC1(C)CCC2=C(O1)c1ccccc1C(=O)C2=O` [LAPACHONE], the GI50 [1] is reported as 41 µM, the GI50 [2] is reported as 12.9 µM and the GI50 [3] is reported as 11.4 µM. The GI50 [4] was 34.5 µM, the GI50 [5] was 31.8 µM and the GI50 [6] was 12.2 µM. It also gave a GI50 [7] of 8.3 µM and a GI50 [8] of 70.1 µM.
Work on `O=C1C=C(Cl)C(=O)c2c(O)cccc21` yielded a GI50 [1] of 3.2 µM, a GI50 [2] of 4.1 µM and a GI50 [3] of 9.3 µM. The GI50 [4] was 1.7 µM, the GI50 [5] was 0.99 µM and the IC50 [18] was 1.8 µM. The Ratio IC50 [25] was 12, the GI50 [6] was 15.6 µM and the GI50 [7] was 12.7 µM. For the same molecule, the GI50 [8] was 0.18 µM, the IC50 [26] was 0.15 µM and the inhibition [22] was “Active”.
`COC(=O)/C=C(/CC1=C(CCC(=O)CC2(C)OCCO2)C(=O)c2ccccc2C1=O)OC` gave a GI50 [1] of 9.7 µM, a GI50 [2] of 21.5 µM and a GI50 [3] of 24 µM. The GI50 [4] was 16.8 µM, the GI50 [5] was 19.1 µM and the GI50 [6] was 28.3 µM. The GI50 [7] was 16.3 µM and the GI50 [8] was 43.1 µM.
Work on `CC1=CC(=O)c2c(O)cc(C)c(C(=O)C(Cl)Cl)c2C1=O` yielded a GI50 [1] of 3.7 µM, a GI50 [2] of 4.3 µM and a GI50 [3] of 8.5 µM. For the same molecule, the GI50 [4] was 3.7 µM, the GI50 [5] was 1.6 µM and the GI50 [6] was 25.8 µM. For the same molecule, the GI50 [7] was 1.9 µM and the GI50 [8] was 0.86 µM.
